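Method: 48-hour compound exposure of cells in 96-well plates, five concentrations, linear interpolation of endpoints. At the TGI there is no net growth.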
Assays:
Experiment in all cases: NCI tumour cell line growth inhibition, 48 h
[1] = test system: UACC-62 melanoma
[2] = test system: BT-549 breast
[3] = test system: SW-620 colon
[4] = test system: 786-0 renal
[5] = test system: PC-3 prostate
[6] = test system: IGROV1 ovarian
[7] = test system: HOP-92 NSCLC
[8] = test system: MDA-N
[9] = test system: SK-MEL-2 melanoma
[10] = test system: HT29 colon
[11] = test system: HCT-116 colon
[12] = test system: M14 melanoma
[13] = test system: UACC-257 melanoma
[14] = test system: K-562 leukemia
[15] = test system: MCF7 breast
[16] = test system: NCI-H522 lung
[17] = test system: RPMI-8226 leukemia
[18] = test system: T-47D breast
[19] = test system: MDA-MB-435
[20] = test system: SR leukemia
[21] = test system: LOX IMVI melanoma
[22] = test system: OVCAR-8 ovarian
[23] = test system: HCT-15 colon
[24] = test system: SF-295 CNS
[25] = test system: HCC-2998 colon
[26] = test system: NCI/ADR-RES ovarian
[27] = test system: CCRF-CEM leukemia
[28] = test system: UO-31 renal
[29] = test system: COLO 205 colon
[30] = test system: KM12 colon
[31] = test system: SF-268 CNS
[32] = test system: U251 CNS
[33] = test system: SK-MEL-28 melanoma
[34] = test system: CAKI-1 renal
[35] = test system: SN12C renal
[36] = test system: MDA-MB-231 breast
[37] = test system: HOP-62 NSCLC
[38] = test system: ACHN renal
[39] = test system: MALME-3M melanoma
[40] = test system: TK-10 renal
[41] = test system: HL-60(TB) leukemia
[42] = test system: SNB-75 CNS
[43] = test system: SF-539 CNS
[44] = test system: HS 578T breast
[45] = test system: EKVX NSCLC
[46] = test system: NCI-H23 lung
[47] = test system: MOLT-4 leukemia
[48] = test system: A498 renal
[49] = test system: A549 NSCLC
[50] = test system: DU-145 prostate
[51] = test system: RXF 393 renal
[52] = test system: OVCAR-3 ovarian
[53] = test system: SNB-19 CNS
[54] = test system: SK-MEL-5 melanoma
[55] = test system: OVCAR-5 ovarian
[56] = test system: NCI-H460 lung
[57] = test system: NCI-H226 lung
[58] = test system: SK-OV-3 ovarian
[59] = test system: OVCAR-4 ovarian

Measured: TGI

S=C(S)N1CCN(c2cccc(Cl)c2)CC1
not listed: [56] | [57] | [58] | [59]
> 100 µM: all other assays above

CN(C)Cc1cc(N=Nc2ccccc2)ccc1O
58.1 µM: [14]
79.1 µM: [48]
89.6 µM: [28]
73.9 µM: [16]
29.4 µM: [54]
76.9 µM: [13]
69.2 µM: [1] | [51]
not listed: [58] | [59]
> 100 µM: all other assays above

O=S(=O)(Nc1ccccc1)c1ccc(-c2c3nc(c(-c4ccc(S(=O)(=O)Nc5ccccc5)cc4)c4ccc([nH]4)c(-c4ccc(S(=O)(=O)Nc5ccccc5)cc4)c4nc(c(-c5ccc(S(=O)(=O)Nc6ccccc6)cc5)c5ccc2[nH]5)C=C4)C=C3)cc1
22.4 µM: [38]
16.2 µM: [56]
24.6 µM: [59]
> 100 µM: [6] | [57]
23.6 µM: [12]
not listed: [17] | [21] | [33] | [37] | [52]
> 31.6 µM: all other assays above

O=C(Oc1ccc(S(=O)(=O)F)cc1F)c1ccccc1Cl
65.1 µM: [7]
74.6 µM: [19]
70.5 µM: [56]
58 µM: [36]
31.1 µM: [54]
65.2 µM: [44]
45.6 µM: [17]
53.9 µM: [46]
75.6 µM: [52]
86.4 µM: [39]
94.5 µM: [59]
87.2 µM: [53]
42 µM: [16]
72.9 µM: [10]
83.9 µM: [15]
62.1 µM: [43]
89.4 µM: [24]
72.3 µM: [45]
78.8 µM: [13]
64.5 µM: [51]
44.6 µM: [29]
60.9 µM: [30]
74.2 µM: [42]
84.3 µM: [18]
40 µM: [28]
55.8 µM: [20]
not listed: [27] | [47]
> 100 µM: all other assays above

OC1(c2ccccc2)c2ccccc2NC2=NCCN21 (centres undefined)
45 µM: [20]
99.6 µM: [29]
45.8 µM: [17]
31.3 µM: [25]
52.2 µM: [47]
not listed: [14] | [27] | [39]
> 100 µM: all other assays above

From PubChem BioAssay (NCI)
